These results are taken from patent US6669951B2, “Compositions and methods for enhancing drug delivery across and into epithelial tissues” (CellGate, Inc., priority 1999, dated 2003).

Peptide text beside a SMILES is read from it. * marks the point of attachment. FITC = O=C1OC2(c3ccc(O)cc3Oc3cc(O)ccc32)c2ccc(NC(=S)*)cc21; Ahx = NCCCCCC(=O)O

Series [1] has as its system Jurkat cells. Briefly: Cellular uptake kinetics assay (Michaelis-Menton). In kind it is cell-based, human. Also noted: Vmax: unit not given here. Conditions: for Km / Vmax / rate of entering cells, fold faster than Tat47-59: Jurkat cells; for Km / Vmax: incubation 30, 60, 120, 240 seconds, 3° C.; for rate of entering cells, fold faster than Tat47-59: from Km values. The method, then: (§1) The accuracy of this method for determining concentration was established by weighing selected samples and dissolving them in a known amount of PBS buffer. The concentrations determined by UV spectroscopy correlated with the amounts weighed out manually. Jurkat cells (human T cell line), murine B cells (CH27), or human PBL cells were grown in 10% fetal calf serum and DMEM and each of these were used for cellular uptake experiments. […] The microtiter plates were centrifuged and the cells were isolated, washed with cold PBS (3×250 μL), incubated with 0.05% trypsin/0.53 mM EDTA at 37° C. for 5 min, washed with cold PBS, and resuspended in PBS containing 0.1% propidium iodide. The cells were analyzed using fluorescent flow cytometry (FACScan, Becton Dickinson) and cells staining with propidium iodide were excluded from the analysis. The data presented is the mean fluorescent signal for the 5000 cells collected.
Cellular Uptake Kinetics Assay. The assays were performed as previously described except the cells were incubated for 0.5, 1, 2, and 4 min at 4° C. in triplicate in 2% FCS/PBS (50 μl) in microtiter plates (96 well). The reactions were quenched by diluting the samples into 2% FCS/PBS (5 mL). The assays were then worked up and analyzed by fluorescent flow cytometry as previously described.
The rates of cellular uptake were determined after incubation (3° C.) of the peptides in Jurkat cells for 30, 60, 120, and 240 seconds (Table 1).

Series [2] deals with Jurkat cells. Briefly: FACS cellular uptake assay. In kind it is cell-based, human. Conditions: for cellular uptake relative to Tat49-57: Jurkat cells, 2% FCS; for additional loss of intracellular fluorescence from the one amino acid truncated analogs: further deletion of one residue. The method, then:
as §1
Inhibition of Cellular Uptake with Sodium Azide. The assays were performed as previously described with the exception that the cells used were preincubated for 30 min with 0.5% sodium azide in 2% FCS/PBS buffer prior to the addition of fluorescent peptides and the cells were washed with 0.5% sodium azide in PBS buffer. All of the cellular uptake assays were run in parallel in the presence and absence of sodium azide.
To determine the structural requirements for the cellular uptake of short arginine-rich peptides, a series of fluorescently-labeled truncated analogues of Tat49-57 were synthesized using standard solid-phase chemistry. See, e.g., Atherton, E. et al. SOLID-PHASE PEPTIDE […] (IRL: Oxford, Engl. 1989). A fluorescein moiety was attached via an aminohexanoic acid spacer on the amino termini. The ability of these fluorescently labeled peptides to enter Jurkat cells was then analyzed using fluorescent activated cell sorting (FACS). The peptide constructs tested were Tat49-57 (Fl-ahx-[…]; SEQ ID NO:8): Tat49-56 (Fl-ahx-[…]; SEQ ID NO:9), Tat49-55 (Fl-ahx-RKKRRQR; SEQ ID NO: 10), Tat50-57 (Fl-ahx-[…]; SEQ ID NO: 11), and Tat51-57 (Fl-ahx-KRRQRRR; SEQ ID NO: 12). Differentiation between cell surface binding and internalization was accomplished throughout by running a parallel set of assays in the presence and absence of sodium azide. Because sodium azide inhibits energy-dependent cellular uptake but not cell surface binding, the difference in fluorescence between the two assays provided the amount of fluorescence resulting from internalization.

Another series has as its system skin of nude mice. Briefly: Penetration of biotinylated conjugates into skin of nude mice (streptavidin staining). Conditions: 1 mM-100 μM in PBS, nude mice, thirty, sixty, 120 minutes. The method, then:
Samples (100 μl) were applied as a liquid without excipient, prevented from dispersing by a Vaseline™ barrier, and allowed to penetrate for fifteen minutes. At the end of this period the animal was sacrificed, the relevant sections of skin were excised, embedded in mounting medium (OCT), and frozen. Frozen sections (5 microns) were cut using a cryostat, collected on slides, and stained with fluorescently labeled streptavidin (Vector Laboratories, Burlingame, Calif.). The slides were fixed in acetone at 4° C. for ten minutes, air dried, soaked in PBS for five minutes, blocked with normal goat serum for five minutes, and washed with PBS for five minutes. The section was stained by incubation with fluorescently labeled streptavidin at 30 μg/ml for thirty minutes, washed with PBS, counterstained with propidium iodide (1 μg/ml) for two minutes, and the section was mounted with Vectashield™ mounting media. Slides were analyzed by fluorescent microscopy. Parallel studies were done using streptavidin-horse radish peroxidase rather than fluorescein-streptavidin. The biotinylated peptide was visualized by treatment of the sections with the horseradish peroxidase substrate diaminobenzadine, and visualization with light microscopy.
Alternatively, sample (100 μl) was applied as a liquid without excipient and prevented from evaporating by wrapping plastic wrap over the sample sealed with Vaseline™. […] At the end of this period animal was sacrificed, the relevant section of skin was excised, embedded in mounting medium (OCT) and frozen. […] Slides were analyzed by fluorescent microscopy.
At the end of this period animal was sacrificed, the relevant section of skin was excised, embedded in mounting medium (OCT) and frozen. […] Slides were analyzed by fluorescent microscopy
(§2) At the end of this period animal was sacrificed, the relevant section of skin was excised, embedded in mounting medium (OCT) and frozen. […] Slides were analyzed by fluorescent microscopy.
as §2

The subject of series [3] is ear inflammation in Balb/c mice. Briefly: Murine contact dermatitis (DNFB), ear inflammation. Type of series: in vivo, mouse. The method, then: Balb/c (6-7 weeks) mice were painted on the abdomen with 100 μl of 0.7% DNFB in acetone olive oil (95:5). Three days later both ears of the animals were restimulated with 0.5% DNFB in acetone. […] Ear inflammation was measured 24 hours after restimulation using a spring loaded caliper. The percent reduction of inflammation was calculated using the following formula […], where t=thickness of the treated ear, n=the thickness of a normal untreated ear, and u=thickness of an inflamed ear without any treatment. N=20 animals in each group.

In general, Km refers to the substrate concentration at which the rate is half of its maximum. For the compound `N=C(N)NCCC[C@H](NC(=O)[C@H](CCCNC(=N)N)NC(=O)[C@H](CCCNC(=N)N)NC(=O)[C@H](CCCNC(=N)N)NC(=O)[C@H](CCCNC(=N)N)NC(=O)[C@H](CCCNC(=N)N)NC(=O)[C@H](CCCNC(=N)N)NC(=O)[C@H](CCCNC(=N)N)NC(=O)[C@H](CCCNC(=N)N)NC(=O)CCCCCNC(=S)Nc1ccc2c(c1)C(=O)OC21c2ccc(O)cc2Oc2cc(O)ccc21)C(N)=O` (single isomer, unassigned) [R9], in the series on Jurkat cells [1] (Discussion), the “Km values fold greater / fold better than Tat49-57” value was 30 fold. Moreover, in the series with Jurkat cells [1], the Km came out at 44 µM; the Vmax is on record as 0.37; the “rate of entering cells, fold faster than Tat47-59” value is around 20 fold. Consider `C[C@H](NC(=O)[C@H](CCCNC(=N)N)NC(=O)[C@H](CCCNC(=N)N)NC(=O)[C@H](CCCCN)NC(=O)[C@H](CCCCN)NC(=O)[C@H](CCCNC(=N)N)NC(=O)CCCCCNC(=S)Nc1ccc2c(c1)C(=O)OC21c2ccc(O)cc2Oc2cc(O)ccc21)C(=O)N[C@@H](CCCNC(=N)N)C(=O)N[C@@H](CCCNC(=N)N)C(=O)N[C@@H](CCCNC(=N)N)C(N)=O` [A-54] ({FITC-Ahx}-RKKRRARRR-NH2), for which the “cellular uptake relative to Tat49-57” value with Jurkat cells [2] is recorded as “modest decrease in cellular internalization”.

Turning to `CC[C@H](C)[C@H](NC(=O)[C@H](CCCCN)NC(=O)[C@@H](NC(=O)[C@H](CCC(N)=O)NC(=O)[C@H](CCCNC(=N)N)NC(=O)CCCCCNC(=S)Nc1ccc2c(c1)C(=O)OC21c2ccc(O)cc2Oc2cc(O)ccc21)[C@@H](C)CC)C(=O)N[C@@H](Cc1c[nH]c2ccccc12)C(=O)N[C@@H](Cc1ccccc1)C(=O)N[C@@H](CCC(N)=O)C(=O)N[C@@H](CC(N)=O)C(=O)N[C@@H](CCCNC(=N)N)C(=O)N[C@@H](CCCNC(=N)N)C(=O)N[C@@H](CCSC)C(=O)N[C@@H](CCCCN)C(=O)N[C@@H](Cc1c[nH]c2ccccc12)C(=O)N[C@@H](CCCCN)C(=O)N[C@@H](CCCCN)C(N)=O` [Antennapedia43-58, reference compound], in the series on Jurkat cells [1], the Km is 427 µM; the Vmax came out at 0.41; the “rate of entering cells, fold faster than Tat47-59” value is “approximately 2 fold”.

In the case of `CC(=O)O[C@H]1C(=O)[C@@]2(C)[C@H]([C@H](OC(=O)c3ccccc3)[C@]3(O)C[C@H](OC(=O)[C@H](OC(=O)NCCCC[C@H](NC(=O)[C@@H](CCCNC(=N)N)NC(=O)[C@@H](CCCNC(=N)N)NC(=O)[C@@H](CCCNC(=N)N)NC(=O)[C@@H](CCCNC(=N)N)NC(=O)[C@@H](CCCNC(=N)N)NC(=O)CCCCCNC(=O)CCCC[C@@H]4SC[C@@H]5NC(=O)N[C@@H]54)C(N)=O)[C@@H](NC(=O)c4ccccc4)c4ccccc4)C(C)=C1C3(C)C)[C@]1(OC(C)=O)CO[C@@H]1C[C@@H]2O` [B-aca-r5-K-taxol], in the series on skin of nude mice, the “penetration of drug conjugates into skin” value is on record as “very little uptake was seen”. For the compound `N=C(N)NCCC[C@H](NC(=O)[C@H](CCC(N)=O)NC(=O)[C@H](CCCNC(=N)N)NC(=O)[C@H](CCCNC(=N)N)NC(=O)[C@H](CCCCN)NC(=O)[C@H](CCCCN)NC(=O)[C@H](CCCNC(=N)N)NC(=O)CCCCCNC(=S)Nc1ccc2c(c1)C(=O)OC21c2ccc(O)cc2Oc2cc(O)ccc21)C(N)=O` [Tat49-55, Fl-ahx-RKKRRQR] ({FITC-Ahx}-RKKRRQR-NH2), the “additional loss of intracellular fluorescence from the one amino acid truncated analogs” value with Jurkat cells [2] is given as 60%.

As for `N=C(N)NCCC[C@H](NC(=O)[C@H](CCCNC(=N)N)NC(=O)[C@H](CCCNC(=N)N)NC(=O)[C@H](CCC(N)=O)NC(=O)[C@H](CCCNC(=N)N)NC(=O)[C@H](CCCNC(=N)N)NC(=O)[C@H](CCCCN)NC(=O)[C@H](CCCCN)NC(=O)[C@H](CCCNC(=N)N)NC(=O)CCCCCNC(=S)Nc1ccc2c(c1)C(=O)OC21c2ccc(O)cc2Oc2cc(O)ccc21)C(N)=O` [Tat49-57, reference compound], in the series on Jurkat cells [2], the “cellular uptake relative to Tat49-57” value was “between that of R6 and R7”. Besides, in the series on Jurkat cells [1], the Km came out at 770 µM and the Vmax is recorded as 0.38. With `N=C(N)NCCC[C@H](NC(=O)[C@H](CCCNC(=N)N)NC(=O)[C@H](CCCNC(=N)N)NC(=O)[C@H](CCC(N)=O)NC(=O)[C@H](CCCNC(=N)N)NC(=O)[C@H](CCCNC(=N)N)NC(=O)[C@H](CCCCN)NC(=O)CCCCCNC(=S)Nc1ccc2c(c1)C(=O)OC21c2ccc(O)cc2Oc2cc(O)ccc21)C(N)=O` [Tat51-57, Fl-ahx-KRRQRRR] ({FITC-Ahx}-KRRQRRR-NH2), the “additional loss of intracellular fluorescence from the one amino acid truncated analogs” value with Jurkat cells [2] is recorded as “did not further diminish the amount of internalization”. As for `N=C(N)NCCC[C@H](NC(=O)[C@H](CCCCN)NC(=O)[C@H](CCCCN)NC(=O)[C@H](CCCNC(=N)N)NC(=O)[C@H](CCCNC(=N)N)NC(=O)[C@H](CCC(N)=O)NC(=O)[C@H](CCCNC(=N)N)NC(=O)[C@H](CCCNC(=N)N)NC(=O)[C@H](CCCNC(=N)N)NC(=O)CCCCCNC(=S)Nc1ccc2c(c1)C(=O)OC21c2ccc(O)cc2Oc2cc(O)ccc21)C(N)=O` [Tat57-49], the “cellular uptake relative to Tat49-57” value with Jurkat cells [2] is “more effective at entering Jurkat cells then Tat49-57”. The same measure, in the same setting: the entry for `N=C(N)NCCC[C@@H](NC(=O)[C@@H](CCCNC(=N)N)NC(=O)[C@@H](CCCNC(=N)N)NC(=O)[C@@H](CCC(N)=O)NC(=O)[C@@H](CCCNC(=N)N)NC(=O)[C@@H](CCCNC(=N)N)NC(=O)[C@@H](CCCCN)NC(=O)[C@@H](CCCCN)NC(=O)[C@@H](CCCNC(=N)N)NC(=O)CCCCCNC(=S)Nc1ccc2c(c1)C(=O)OC21c2ccc(O)cc2Oc2cc(O)ccc21)C(N)=O` [d-Tat49-57, F1-ahx-rkkrrqrrr] is “more effective at entering Jurkat cells then Tat49-57”. Take `N=C(N)NCCC[C@@H](NC(=O)[C@@H](CCCCN)NC(=O)[C@@H](CCCCN)NC(=O)[C@@H](CCCNC(=N)N)NC(=O)[C@@H](CCCNC(=N)N)NC(=O)[C@@H](CCC(N)=O)NC(=O)[C@@H](CCCNC(=N)N)NC(=O)[C@@H](CCCNC(=N)N)NC(=O)[C@@H](CCCNC(=N)N)NC(=O)CCCCCNC(=S)Nc1ccc2c(c1)C(=O)OC21c2ccc(O)cc2Oc2cc(O)ccc21)C(N)=O` [d-Tat57-49, F1-ahx-rrrqrrkkr]: the “cellular uptake relative to Tat49-57” value in the series on Jurkat cells [2] is “more effective at entering Jurkat cells then Tat49-57”. With `CC1(C)O[C@@H]2C[C@H]3[C@@H]4CCC5=CC(=O)C=C[C@]5(C)[C@@]4(F)[C@@H](O)C[C@]3(C)[C@]2(C(=O)CO)O1` [triamcinolone acetonide, reference compound], the “reduction in ear inflammation” value in series [3] (0.1% topical) is 34.1%±6.3. Consider “R7 (SEQ ID NO:3): heptamer that consists of L-arginine residues; SEQ ID NO:3 (RRRRRRR)”, for which, in series [3] (1% topical, 1, 5 and 20 h after restimulation, measured 24 hours), the “reduction in ear inflammation” value is listed as “No reduction of inflammation was observed”.
